# Experimental data as given in ChEMBL document CHEMBL4376895.
# Calls of active or inactive are those of the source. No cut-off for these calls is given here. Positions of bridges follow the written chain, without caps; N, C: chain ends. Residues, ends and D or L forms follow the SMILES beside them.
# Experiments:
# Assay type in all cases: cell-based
# [1] = biological target: T1, Neuronal acetylcholine receptor; alpha4/beta2 (Rattus norvegicus) (UniProt P09483+P12390); assay: Antagonist activity at rat alpha4beta2 nAChR expressed in Xenopus laevis oocytes assessed as inhibition of Ach-induced response up to 10 uM at -70 mV holding potential by two electrode voltage-clamp assay
# [2] = biological target: T2, Neuronal acetylcholine receptor; alpha2/beta4 (Rattus norvegicus) (UniProt P12389+P12392); assay: Antagonist activity at rat alpha2beta4 nAChR expressed in Xenopus laevis oocytes assessed as inhibition of Ach-induced response up to 10 uM at -70 mV holding potential by two electrode voltage-clamp assay
# [3] = biological target: T3, Neuronal acetylcholine receptor; alpha4/beta4 (Rattus norvegicus) (UniProt P09483+P12392); assay: Antagonist activity at rat alpha4beta4 nAChR expressed in Xenopus laevis oocytes assessed as inhibition of Ach-induced response up to 10 uM at -70 mV holding potential by two electrode voltage-clamp assay
# [4] = biological target: Nicotinic acetylcholine receptor alpha9/alpha10 (Rattus norvegicus) (UniProt P43144+Q9JLB5); assay: Antagonist activity at rat alpha9alpha10 nAChR expressed in Xenopus laevis oocytes assessed as inhibition of Ach-induced response at 10 nM at -70 mV holding potential preincubated for 5 mins followed by compound washout by two electrode voltage-clamp assay
# [5] = biological target: T1, Neuronal acetylcholine receptor; alpha4/beta2 (Rattus norvegicus); assay: Antagonist activity at rat alpha4beta2 nAChR expressed in Xenopus laevis oocytes assessed as inhibition of Ach-induced response at >10 uM at -70 mV holding potential by two electrode voltage-clamp assay
# [6] = biological target: T4, Neuronal acetylcholine receptor; alpha9/alpha10 (Homo sapiens) (UniProt Q9UGM1+Q9GZZ6); assay: Antagonist activity at human alpha9alpha10 nAChR expressed in Xenopus laevis oocytes assessed as inhibition of Ach-induced response at 50 nM at -70 mV holding potential by two electrode voltage-clamp assay relative to control
# [7] = biological target: T3, Neuronal acetylcholine receptor; alpha4/beta4 (Rattus norvegicus); assay: Antagonist activity at rat alpha4beta4 nAChR expressed in Xenopus laevis oocytes assessed as inhibition of Ach-induced response at >10 uM at -70 mV holding potential by two electrode voltage-clamp assay
# [8] = biological target: T4, Neuronal acetylcholine receptor; alpha9/alpha10 (Homo sapiens); assay: Antagonist activity at human alpha9alpha10 nAChR expressed in Xenopus laevis oocytes assessed as inhibition of Ach-induced response at 100 nM at -70 mV holding potential by two electrode voltage-clamp assay relative to control
# [9] = biological target: T2, Neuronal acetylcholine receptor; alpha2/beta4 (Rattus norvegicus); assay: Antagonist activity at rat alpha2beta4 nAChR expressed in Xenopus laevis oocytes assessed as inhibition of Ach-induced response at >10 uM at -70 mV holding potential by two electrode voltage-clamp assay
Compound,inhibition [1],inhibition [2],inhibition [3],inhibition [4],inhibition [5],inhibition [6] [%],inhibition [7],inhibition [8] [%],inhibition [9]
CC[C@H](C)[C@H](NC(=O)[C@H](CCCNC(=N)N)NC(=O)[C@H](CCCNC(=N)N)NC(=O)[C@@H]1CSSC[C@H](NC(=O)[C@H](Cc2ccc(O)cc2)NC(=O)[C@H](CCCNC(=N)N)NC(=O)CNC(=O)[C@H](CO)NC(=O)[C@H](CO)NC(=O)[C@H](CCCNC(=N)N)NC(=O)[C@H](C)NC(=O)[C@@H](N)[C@@H](C)O)C(=O)N[C@@H](CCCNC(=N)N)C(=O)N[C@@H](CO)C(=O)N2CCC[C@H]2C(=O)N[C@@H](Cc2ccc(O)cc2)C(=O)N[C@@H](CC(=O)O)C(=O)N[C@@H](CCCNC(=N)N)C(=O)N[C@@H](CCCNC(=N)N)C(=O)N[C@@H](CCCNC(=N)N)C(=O)N[C@@H](CCCNC(=N)N)C(=O)N[C@@H](Cc2ccc(O)cc2)C(=O)N1)C(=O)N[C@H](C(=O)N[C@@H](CC(=O)O)C(=O)N[C@@H](C)C(=O)N[C@@H](C)C(=O)N[C@H](C(=O)O)C(C)C)[C@@H](C)O,inactive,inactive,inactive,,,,,,
CC[C@H](C)[C@H](NC(=O)[C@H](CCCNC(=N)N)NC(=O)[C@H](CCCNC(=N)N)NC(=O)[C@@H]1CSSC[C@H](NC(=O)[C@H](Cc2ccc(O)cc2)NC(=O)[C@H](CCCNC(=N)N)NC(=O)CNC(=O)[C@H](CO)NC(=O)[C@H](CO)NC(=O)[C@H](CCCNC(=N)N)NC(=O)[C@H](CO)NC(=O)[C@@H](N)[C@@H](C)O)C(=O)N[C@@H](CCCNC(=N)N)C(=O)N[C@@H](CO)C(=O)N2CCC[C@H]2C(=O)N[C@@H](Cc2ccc(O)cc2)C(=O)N[C@@H](CC(=O)O)C(=O)N[C@@H](CCCNC(=N)N)C(=O)N[C@@H](CCCNC(=N)N)C(=O)N[C@@H](CCCNC(=N)N)C(=O)N[C@@H](CCCNC(=N)N)C(=O)N[C@@H](Cc2ccc(O)cc2)C(=O)N1)C(=O)N[C@H](C(=O)N[C@@H](CC(=O)O)C(=O)N[C@@H](C)C(=O)N[C@@H](CO)C(=O)N[C@H](C(=O)O)C(C)C)[C@@H](C)O,inactive,inactive,inactive,,,,,,
CC[C@H](C)[C@H](NC(=O)[C@H](CCCNC(=N)N)NC(=O)[C@H](CCCNC(=N)N)NC(=O)[C@H](C)NC(=O)[C@H](Cc1ccc(O)cc1)NC(=O)[C@H](CCCNC(=N)N)NC(=O)[C@H](CCCNC(=N)N)NC(=O)[C@H](CCCNC(=N)N)NC(=O)[C@H](CCCNC(=N)N)NC(=O)[C@H](CC(=O)O)NC(=O)[C@H](Cc1ccc(O)cc1)NC(=O)[C@@H]1CCCN1C(=O)[C@H](CO)NC(=O)[C@H](CCCNC(=N)N)NC(=O)[C@@H]1CSSC[C@H](NC(=O)[C@@H](N)[C@@H](C)O)C(=O)N[C@@H](CCCNC(=N)N)C(=O)N[C@@H](CO)C(=O)N[C@@H](CO)C(=O)NCC(=O)N[C@@H](CCCNC(=N)N)C(=O)N[C@@H](Cc2ccc(O)cc2)C(=O)N1)C(=O)N[C@H](C(=O)N[C@@H](CC(=O)O)C(=O)N[C@@H](C)C(=O)N[C@@H](C)C(=O)N[C@H](C(=O)O)C(C)C)[C@@H](C)O,inactive,inactive,inactive,,,,,,
CC[C@H](C)[C@H](NC(=O)[C@H](CCCNC(=N)N)NC(=O)[C@H](CCCNC(=N)N)NC(=O)[C@H](CO)NC(=O)[C@H](Cc1ccc(O)cc1)NC(=O)[C@H](CCCNC(=N)N)NC(=O)[C@H](CCCNC(=N)N)NC(=O)[C@H](CCCNC(=N)N)NC(=O)[C@H](CCCNC(=N)N)NC(=O)[C@H](CC(=O)O)NC(=O)[C@H](Cc1ccc(O)cc1)NC(=O)[C@@H]1CCCN1C(=O)[C@H](CO)NC(=O)[C@H](CCCNC(=N)N)NC(=O)[C@@H]1CSSC[C@H](NC(=O)[C@@H](N)[C@@H](C)O)C(=O)N[C@@H](CCCNC(=N)N)C(=O)N[C@@H](CO)C(=O)N[C@@H](CO)C(=O)NCC(=O)N[C@@H](CCCNC(=N)N)C(=O)N[C@@H](Cc2ccc(O)cc2)C(=O)N1)C(=O)N[C@H](C(=O)N[C@@H](CC(=O)O)C(=O)N[C@@H](C)C(=O)N[C@@H](CO)C(=O)N[C@H](C(=O)O)C(C)C)[C@@H](C)O,inactive,inactive,inactive,,,,,,
CC[C@H](C)[C@@H]1NC(=O)[C@H](CCCNC(=N)N)NC(=O)[C@H](CCCNC(=N)N)NC(=O)[C@@H](NC(=O)[C@H](Cc2ccc(O)cc2)NC(=O)[C@H](CCCNC(=N)N)NC(=O)[C@H](CCCNC(=N)N)NC(=O)[C@H](CCCNC(=N)N)NC(=O)[C@H](CCCNC(=N)N)NC(=O)[C@H](CC(=O)O)NC(=O)[C@H](Cc2ccc(O)cc2)NC(=O)[C@@H]2CCCN2C(=O)[C@H](CO)NC(=O)[C@H](CCCNC(=N)N)NC(=O)[C@H](C)NC(=O)[C@H](Cc2ccc(O)cc2)NC(=O)[C@H](CCCNC(=N)N)NC(=O)CNC(=O)[C@H](CO)NC(=O)[C@H](CO)NC(=O)[C@H](CCCNC(=N)N)NC(=O)[C@H](C)NC(=O)[C@@H](N)[C@@H](C)O)CSSC[C@@H](C(=O)N[C@H](C(=O)O)C(C)C)NC(=O)[C@H](C)NC(=O)[C@H](CC(=O)O)NC(=O)[C@H]([C@@H](C)O)NC1=O (H-TARSSGRYARSPYDRRRRYCRRITDACV-OH; disulfide 20-27),inactive,inactive,inactive,,,,,,
CC[C@H](C)[C@@H]1NC(=O)[C@H](CCCNC(=N)N)NC(=O)[C@H](CCCNC(=N)N)NC(=O)[C@H](C)NC(=O)[C@H](Cc2ccc(O)cc2)NC(=O)[C@H](CCCNC(=N)N)NC(=O)[C@H](CCCNC(=N)N)NC(=O)[C@H](CCCNC(=N)N)NC(=O)[C@H](CCCNC(=N)N)NC(=O)[C@H](CC(=O)O)NC(=O)[C@H](Cc2ccc(O)cc2)NC(=O)[C@@H]2CCCN2C(=O)[C@H](CO)NC(=O)[C@H](CCCNC(=N)N)NC(=O)[C@H](C)NC(=O)[C@H](Cc2ccc(O)cc2)NC(=O)[C@H](CCCNC(=N)N)NC(=O)CNC(=O)[C@H](CO)NC(=O)[C@H](CO)NC(=O)[C@H](CCCNC(=N)N)NC(=O)[C@@H](NC(=O)[C@@H](N)[C@@H](C)O)CSSC[C@@H](C(=O)N[C@H](C(=O)O)C(C)C)NC(=O)[C@H](C)NC(=O)[C@H](CC(=O)O)NC(=O)[C@H]([C@@H](C)O)NC1=O (H-TCRSSGRYARSPYDRRRRYARRITDACV-OH; disulfide 2-27),inactive,inactive,inactive,,,,,,
CC[C@H](C)[C@@H]1NC(=O)[C@H](CCCNC(=N)N)NC(=O)[C@H](CCCNC(=N)N)NC(=O)[C@H](CO)NC(=O)[C@H](Cc2ccc(O)cc2)NC(=O)[C@H](CCCNC(=N)N)NC(=O)[C@H](CCCNC(=N)N)NC(=O)[C@H](CCCNC(=N)N)NC(=O)[C@H](CCCNC(=N)N)NC(=O)[C@H](CC(=O)O)NC(=O)[C@H](Cc2ccc(O)cc2)NC(=O)[C@@H]2CCCN2C(=O)[C@H](CO)NC(=O)[C@H](CCCNC(=N)N)NC(=O)[C@H](CO)NC(=O)[C@H](Cc2ccc(O)cc2)NC(=O)[C@H](CCCNC(=N)N)NC(=O)CNC(=O)[C@H](CO)NC(=O)[C@H](CO)NC(=O)[C@H](CCCNC(=N)N)NC(=O)[C@@H](NC(=O)[C@@H](N)[C@@H](C)O)CSSC[C@@H](C(=O)N[C@H](C(=O)O)C(C)C)NC(=O)[C@H](C)NC(=O)[C@H](CC(=O)O)NC(=O)[C@H]([C@@H](C)O)NC1=O (H-TCRSSGRYSRSPYDRRRRYSRRITDACV-OH; disulfide 2-27),inactive,inactive,inactive,,,,,,
CC[C@H](C)[C@@H]1NC(=O)[C@H](CCCNC(=N)N)NC(=O)[C@H](CCCNC(=N)N)NC(=O)[C@@H](NC(=O)[C@H](Cc2ccc(O)cc2)NC(=O)[C@H](CCCNC(=N)N)NC(=O)[C@H](CCCNC(=N)N)NC(=O)[C@H](CCCNC(=N)N)NC(=O)[C@H](CCCNC(=N)N)NC(=O)[C@H](CC(=O)O)NC(=O)[C@H](Cc2ccc(O)cc2)NC(=O)[C@@H]2CCCN2C(=O)[C@H](CO)NC(=O)[C@H](CCCNC(=N)N)NC(=O)[C@H](CO)NC(=O)[C@H](Cc2ccc(O)cc2)NC(=O)[C@H](CCCNC(=N)N)NC(=O)CNC(=O)[C@H](CO)NC(=O)[C@H](CO)NC(=O)[C@H](CCCNC(=N)N)NC(=O)[C@H](CO)NC(=O)[C@@H](N)[C@@H](C)O)CSSC[C@@H](C(=O)N[C@H](C(=O)O)C(C)C)NC(=O)[C@H](C)NC(=O)[C@H](CC(=O)O)NC(=O)[C@H]([C@@H](C)O)NC1=O (H-TSRSSGRYSRSPYDRRRRYCRRITDACV-OH; disulfide 20-27),inactive,inactive,inactive,,,,,,
H-TARSSGRYARSPYDRRRRYARRITDAAV-OH,inactive,inactive,inactive,,,,,,
H-TARSSGRYARSPYDRRRRYSRRITDASV-OH,inactive,inactive,inactive,Active,Active,74,Active,100,Active
H-TSRSSGRYSRSPYDRRRRYARRITDAAV-OH,inactive,inactive,inactive,,,,,,
H-TSRSSGRYSRSPYDRRRRYSRRITDASV-OH,inactive,inactive,inactive,,,,,,
